Test results from patent US9956293B2, “Targeted therapeutics” (Madrigal Pharmaceuticals, Inc., priority 2014, dated 2018).

What follows are molecules tested on HER2 (assay: HER2 degradation assay with BT-474 cell line (Example 12, FACS)). Conditions: Homo sapiens, BT-474; SDC-TRAPs of the 41st table.
Type: cell-based
Excerpt: HER2 Degradation Assay with BT-474 Cell Line
HER2 has emerged as a key target for anticancer drugs due to its intrinsic involvement in the phosphatidylinositol-3-kinase-Akt/protein kinase B (PI3K-Akt) and the mitogen-activated protein kinase (MAPK) pathways, both of which suppress apoptosis and promote tumor cell survival, gene transcription, angiogenesis, cellular proliferation, migration, mitosis, and differentiation. The degradation of HER2 is a measure of efficacy of anticancer therapeutics that target Hsp90. Accordingly, the SDC-TRAP molecules of the invention that comprise a binding moiety that binds Hsp90 were tested in the following HER2 degradation assay.
BT-474 cells (human breast cancer cell line ATCC HTB-20) were obtained from ATCC and seeded into 12-well tissue culture plates at 0.2×10^6/1.8 mL/well. […] Each test compound was titrated in 4-fold dilutions from 5 μM to 78 nM with DMSO and 200 μL of the titration was added to each well of the cell plate. The DMSO final concentration was 0.2%. Cells were incubated overnight at 37° C. in 5% CO2.
Media was decanted from the plate, cells were washed 1× in PBS. 400 μL trypsin (EDTA) per well was added, and the cells were incubated for 2 to 3 minutes. Cells were collected into FACS tubes containing 1 ml culture medium to neutralize the trypsin and were centrifuged for 5 minutes at 1200 rpm. Supernatant was decanted and the cells were resuspended in 5 μL FITC (anti HER2/nu)/200 μL staining buffer (1×PBS+1% FBS+0.05% Sodium Azide)/tube. Controls were […] IgG isotype control and staining buffer only. Tubes were incubated for 30 minutes in the dark at room temperature. 1 mL staining buffer was added to each tube and the tubes were centrifuged for 6 minutes at 1200 rpm. The supernatant was decanted and 300 μL staining buffer was added to each tube, which was store at 4° C. for FACS (cytometer) analysis. The cytometer readout was normalized and the potency of each compound is evaluated with IC50 calculated with XLfit™ software.

Row | IC50 | Structure (SMILES)
1 | 1.83 µM | CC(C)c1cc(-c2nnc(O)n2-c2ccc3c(ccn3CCC3CCN(C(=O)c4ccc(CCc5c[nH]c6nc(N)[nH]c(=O)c56)cc4)CC3)c2)c(O)cc1O [SDC-TRAP-0130, 2-amino-5-(4-(4-(2-(5-(3-(2,4-dihydroxy-5-isopropylphenyl)-5-hydroxy-4H-1,2,4-triazol-4-yl)-1H-indol-1-yl)ethyl)piperidine-1-carbonyl)phenethyl)-3H-pyrrolo[2,3-d]pyrimidin-4(7H)-one]

Same assay, conditions: Homo sapiens; BT-474 cells

Row | IC50 | Structure (SMILES)
2 | > 10 µM | CC(C)c1cc(-c2nnc(O)n2-c2ccc(CN3CCN(CCN(C)C(=O)Nc4cccc5c4CN(C4CCC(=O)NC4=O)C5=O)CC3)cc2)c(O)cc1O (centres unmarked) [SDC-TRAP-0105, 1-(2-(4-(4-(3-(2,4-dihydroxy-5-isopropylphenyl)-5-hydroxy-4H-1,2,4-triazol-4-yl)benzyl)piperazin-1-yl)ethyl)-3-(2-(2,6-dioxopiperidin-3-yl)-1-oxoisoindolin-4-yl)-1-methylurea]
3 | > 10 µM | CC(C)c1cc(-c2nnc(O)n2-c2ccc(CCC3CCN(C(=O)Nc4cccc5c4CN(C4CCC(=O)NC4=O)C5=O)CC3)cc2)c(O)cc1O (centres unmarked) [SDC-TRAP-0108, 4-(4-(3-(2,4-dihydroxy-5-isopropylphenyl)-5-hydroxy-4H-1,2,4-triazol-4-yl)phenethyl)-N-(2-(2,6-dioxopiperidin-3-yl)-1-oxoisoindolin-4-yl) piperidine-1-carboxamide]
4 | > 10 µM | CC(C)c1cc(-c2nnc(O)n2-c2ccc(CN3CCN(C(=O)Nc4cccc5c4CN(C4CCC(=O)NC4=O)C5=O)CC3)cc2)c(O)cc1O (centres unmarked) [SDC-TRAP-0109, 4-(4-(3-(2,4-di hydroxy-5-isopropylphenyl)-5-hydroxy-4H-1,2,4-triazol-4-yl)benzyl)-N-(2-(2,6-dioxopiperidin-3-yl)-1-oxoisoindolin-4-yl)piperazine-1-carboxamide]
5 | > 10 µM | CC(C)c1cc(-c2nnc(O)n2-c2ccc(N3CCN(CC(=O)Nc4cccc5c4CN(C4CCC(=O)NC4=O)C5=O)CC3)cc2)c(O)cc1O (centres unmarked) [SDC-TRAP-0110, 2-(4-(4-(3-(2,4-dihydroxy-5-isopropylphenyl)-5-hydroxy-4H-1,2,4-triazol-4-yl)phenyl)piperazin-1-yl)-N-(2-(2,6-dioxopiperidin-3-yl)-1-oxoisoindolin-4-yl)acetamide]
6 | 4.31 µM | CC(C)c1cc(-c2nnc(O)n2-c2ccc(CC3CCN(C(=O)Nc4cccc5c4CN(C4CCC(=O)NC4=O)C5=O)CC3)cc2)c(O)cc1O (centres unmarked) [SDC-TRAP-0114, 4-(4-(3-(2,4-dihydroxy-5-isopropylphenyl)-5-hydroxy-4H-1,2,4-triazol-4-yl)benzyl)-N-(2-(2,6-dioxopiperidin-3-yl)-1-oxoisoindolin-4-yl)piperidine-1-carboxamide]
7 | 1.89 µM | COc1cc(O)c(-c2nnc(C(=O)NC(C)C)n2-c2ccc(CN3CCC(C(=O)Nc4cccc5c4CN(C4CCC(=O)NC4=O)C5=O)CC3)cc2)cc1C(C)C (centres unmarked) [SDC-TRAP-0115, N-(2-(2,6-dioxopiperidin-3-yl)-1-oxoisoindolin-4-yl)-1-(4-(3-(2-hydroxy-5-isopropyl-4-methoxyphenyl)-5-(isopropylcarbamoyl)-4H-1,2,4-triazol-4-yl)benzyl)piperidine-4-carboxamide]
8 | 1.09 µM | CC(C)c1cc(-c2nnc(O)n2-c2ccc(CN3CCN(C(=O)ONC(=O)CCCCCCC(=O)Nc4ccccc4)CC3)cc2)c(O)cc1O [SDC-TRAP-0117, N1-((4-(4-(3-(2,4-dihydroxy-5-isopropylphenyl)-5-hydroxy-4H-1,2,4-triazol-4-yl)benzyl)piperazine-1-carbonyl)oxy)-N8-phenyloctanediamide]
9 | 2.35 µM | CC(C)c1cc(-c2nnc(O)n2-c2ccc3c(ccn3CCC3CCN(C(=O)ONC(=O)CCCCCCC(=O)Nc4ccccc4)CC3)c2)c(O)cc1O [SDC-TRAP-0118, N1-((4-(2-(5-(3-(2,4-dihydroxy-5-isopropylphenyl)-5-hydroxy-4H-1,2,4-triazol-4-yl)-1H-indol-1-yl)ethyl)piperidine-1-carbonyl)oxy)-N8-phenyloctanediamide]
10 | > 10 µM | CC(C)c1cc(-c2nnc(O)n2-c2ccc3c(ccn3CCC3CCN(C(=O)Nc4cccc5c4CN(C4CCC(=O)NC4=O)C5=O)CC3)c2)c(O)cc1O (centres unmarked) [SDC-TRAP-0119, 4-(2-(5-(3-(2,4-dihydroxy-5-isopropylphenyl)-5-hydroxy-4H-1,2,4-triazol-4-yl)-1H-indol-1-yl)ethyl)-N-(2-(2,6-dioxopiperidin-3-yl)-1-oxoisoindolin-4-yl)piperidine-1-carboxamide]
11 | 3 µM | CC(C)c1cc(-c2nnc(O)n2-c2ccc(CN3CCN(C(=O)COC(=O)Nc4cccc5c4CN(C4CCC(=O)NC4=O)C5=O)CC3)cc2)c(O)cc1O (centres unmarked) [SDC-TRAP-0121, 2-(4-(4-(3-(2,4-dihydroxy-5-isopropylphenyl)-5-hydroxy-4H-1,2,4-triazol-4-yl)benzyl)piperazin-1-yl)-2-oxoethyl(2-(2,6-dioxopiperidin-3-yl)-1-oxoisoindolin-4-yl)carbamate]
12 | > 10 µM | CC(C)c1cc(-c2nnc(O)n2-c2ccc3c(ccn3CCOC(=O)Nc3cccc4c3CN(C3CCC(=O)NC3=O)C4=O)c2)c(O)cc1O (centres unmarked) [SDC-TRAP-0122, 2-(5-(3-(2,4-dihydroxy-5-isopropylphenyl)-5-hydroxy-4H-1,2,4-triazol-4-yl)-1H-indol-1-yl)ethyl (2-(2,6-dioxopiperidin-3-yl)-1-oxoisoindolin-4-yl)carbamate]
13 | 0.657 µM | CCNC(=O)c1nnc(-c2cc(C(C)C)c(O)cc2O)n1-c1ccc(CN2CCC(C(=O)N3CCC(OC(=O)Nc4cccc5c4CN(C4CCC(=O)NC4=O)C5=O)CC3)CC2)cc1 (centres unmarked) [SDC-TRAP-0123, 1-(1-(4-(3-(2,4-Dihydroxy-5-isopropylphenyl)-5-(ethylcarbamoyl)-4H-1,2,4-triazol-4-yl)benzyl)piperidine-4-carbonyl)piperidin-4-yl (2-(2,6-dioxopiperidin-3-yl)-1-oxoisoindolin-4-yl)carbamate]
14 | 0.358 µM | CCNC(=O)c1nnc(-c2cc(C(C)C)c(O)cc2O)n1-c1ccc(CN2CCC(C(=O)N3CCC(COC(=O)Nc4cccc5c4CN(C4CCC(=O)NC4=O)C5=O)CC3)CC2)cc1 (centres unmarked) [SDC-TRAP-0124, (1-(1-(4-(3-(2,4-Dihydroxy-5-isopropylphenyl)-5-(ethylcarbamoyl)-4H-1,2,4-triazol-4-yl)benzyl)piperidine-4-carbonyl)piperidin-4-yl)methyl (2-(2,6-dioxopiperidin-3-yl)-1-oxoisoindolin-4-yl)carbamate]
15 | 0.312 µM | CCNC(=O)c1nnc(-c2cc(C(C)C)c(O)cc2O)n1-c1ccc(Oc2ccc(C(=O)N3CCC(COC(=O)Nc4cccc5c4CN(C4CCC(=O)NC4=O)C5=O)CC3)cc2)cc1 (centres unmarked) [SDC-TRAP-0125, (1-(4-(4-(3-(2,4-Dihydroxy-5-isopropylphenyl)-5-(ethylcarbamoyl)-4H-1,2,4-triazol-4-yl)phenoxy)benzoyl)piperidin-4-yl)methyl (2-(2,6-dioxopiperidin-3-yl)-1-oxoisoindolin-4-yl)carbamate]
16 | 8.64 µM | CC(C)c1cc(-c2nnc(O)n2-c2ccc(N3CCN(CCCC(=O)Nc4cccc5c4CN(C4CCC(=O)NC4=O)C5=O)CC3)cc2)c(O)cc1O (centres unmarked) [SDC-TRAP-0126, 4-(4-(4-(3-(2,4-dihydroxy-5-isopropylphenyl)-5-hydroxy-4H-1,2,4-triazol-4-yl)phenyl)piperazin-1-yl)-N-(2-(2,6-dioxopiperidin-3-yl)-1-oxoisoindolin-4-yl) butanamide]
17 | 8.09 µM | CC(C)c1cc(-c2nnc(O)n2-c2ccc(CC(=O)N(C)CCOC(=O)Nc3cccc4c3CN(C3CCC(=O)NC3=O)C4=O)cc2)c(O)cc1O (centres unmarked) [SDC-TRAP-0127, 2-(2-(4-(3-(2,4-di hydroxy-5-isopropylphenyl)-5-hydroxy-4H-1,2,4-triazol-4-yl)phenyl)-N-methylacetamido)ethyl(2-(2,6-dioxopiperidin-3-yl)-1-oxoisoindolin-4-yl)carbamate]
18 | 6.91 µM | CC(C)c1cc(-c2nnc(O)n2-c2ccc(CN3CCN(CC(=O)Nc4cccc5c4CN(C4CCC(=O)NC4=O)C5=O)CC3)cc2)c(O)cc1O (centres unmarked) [SDC-TRAP-0128, 2-(4-(4-(3-(2,4-dihydroxy-5-isopropylphenyl)-5-hydroxy-4H-1,2,4-triazol-4-yl)benzyl)piperazin-1-yl)-N-(2-(2,6-dioxopiperidin-3-yl)-1-oxoisoindolin-4-yl)acetamide]
19 | 4.52 µM | CC(C)c1cc(-c2nnc(O)n2-c2ccc3c(ccn3CCC3CCN(CC(=O)Nc4cccc5c4CN(C4CCC(=O)NC4=O)C5=O)CC3)c2)c(O)cc1O (centres unmarked) [SDC-TRAP-0129, 2-(4-(2-(5-(3-(2,4-dihydroxy-5-isopropylphenyl)-5-hydroxy-4H-1,2,4-triazol-4-yl)-1H-indol-1-yl)ethyl)piperidin-1-yl)-N-(2-(2,6-dioxopiperidin-3-yl)-1-oxoisoindolin-4-yl)acetamide]
20 | > 5 µM | CC(C)c1cc(-c2nnc(O)n2-c2ccc(CC3CCN(C(=O)COC(=O)Nc4cccc5c4CN(C4CCC(=O)NC4=O)C5=O)CC3)cc2)c(O)cc1O (centres unmarked) [SDC-TRAP-0131, 2-(4-(4-(3-(2,4-dihydroxy-5-isopropylphenyl)-5-hydroxy-4H-1,2,4-triazol-4-yl)benzyl)piperidin-1-yl)-2-oxoethyl(2-(2,6-dioxopiperidin-3-yl)-1-oxoisoindolin-4-yl)carbamate]
